Reference: the supplement of paper PMC10627819

Columns and labels:
S. aureus DSM 20231 [1] = assay: fitness (endpoint OD595 vs no drug) (fraction); higher = more growth
How it was run: (§1)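 Bacterial fitness was scored as optical density at the stationary-phase transition relative to the robust mean of no-drug control wells. Scores are capped at 1. The growth data were OD595 readings every 30 min for 14 h at 37 °C, background-subtracted against the first reading, from 384-well plates inoculated at OD595 0.01 in TSB, LB Lennox or CY.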

B. subtilis 168 [2] = assay: as above
How it was run: as §1

S. pneumoniae D39V [3] = assay: as above
How it was run: as §1

S. aureus DSM 20231 [4] = assay: Bliss interaction score (quartile over a dose matrix) (fitness difference); higher = more antagonism (negative = synergy)
How it was run: (§2)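 Each OD595 reading at entry into stationary phase was scaled to the robust mean of the untreated wells on its plate, with a ceiling of 1. These ratios define fitness, and single-drug fitness was inferred from combinations. The Bliss score compares observed fitness with the product-based expectation and is reported as quartiles across all replicate types, technical, biological and donor/recipient.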

B. subtilis 168 [5] = assay: as above
How it was run: as §2

S. pneumoniae D39V [6] = assay: as above
How it was run: as §2

S. aureus Newman = assay: as above
How it was run: as §2
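Wherever Bliss interaction score (quartile over a dose matrix) is given: first quartile when negative (synergy) and third quartile when positive (antagonism).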
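Wherever fitness (endpoint OD595 vs no drug) is given: OD595 on entry to stationary phase over no-drug wells; at most 1.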

CCCCCCCCCC(=O)N[C@@H](Cc1c[nH]c2ccccc12)C(=O)N[C@H](CC(N)=O)C(=O)N[C@@H](CC(=O)O)C(=O)N[C@@H]1C(=O)NCC(=O)N[C@@H](CCCN)C(=O)N[C@@H](CC(=O)O)C(=O)N[C@H](C)C(=O)N[C@@H](CC(=O)O)C(=O)NCC(=O)N[C@H](CO)C(=O)N[C@@H]([C@H](C)CC(=O)O)C(=O)N[C@@H](CC(=O)c2ccccc2N)C(=O)O[C@@H]1C [Daptomycin] + CCC[C@@H]1C[C@@H](C(=O)N[C@@H]([C@H]2O[C@H](SC)[C@H](O)[C@@H](O)[C@H]2O)[C@@H](C)O)N(C)C1 [Lincomycin]
fitness
Conditions | partner 0.1 µg/mL | partner 0.2 µg/mL | partner 0.215 µg/mL | partner 0.4 µg/mL | partner 0.43 µg/mL | partner 0.8 µg/mL | partner 0.86 µg/mL
B. subtilis 168 [2], first compound 0.125 µg/mL | 0.865 | 0.904 | – | 0.863 | – | – | –
B. subtilis 168 [2], first compound 0.25 µg/mL | 0.869 | 0.901 | – | 0.848 | – | – | –
B. subtilis 168 [2], first compound 0.5 µg/mL | 0.937 | 0.905 | – | – | – | – | –
S. aureus DSM 20231 [1], first compound 0.5 µg/mL | 0.962 | 0.821 | – | – | – | – | –
S. aureus DSM 20231 [1], first compound 1 µg/mL | 0.911 | 0.806 | – | – | – | – | –
S. aureus DSM 20231 [1], first compound 2 µg/mL | 0.937 | 0.817 | – | – | – | – | –
S. pneumoniae D39V [3], first compound 1 µg/mL | – | 0.409 | 0.764 | 0.22 | 0.697 | 0.053 | 0.396
S. pneumoniae D39V [3], first compound 2 µg/mL | – | 0.405 | 0.764 | 0.241 | 0.72 | 0.0442 | 0.408
S. pneumoniae D39V [3], first compound 4 µg/mL | – | 0.366 | 0.802 | 0.204 | 0.702 | 0.0329 | 0.411

fitness, B. subtilis 168 [2], one replicate
Conditions | first compound 0.25 µg/mL | first compound 0.5 µg/mL | first compound 1 µg/mL
partner 0.4 µg/mL | – | – | 0.686
partner 0.8 µg/mL | 0.851 | 0.788 | 0.647
partner 1.6 µg/mL | 0.797 | 0.81 | 0.657

Conditions | Bliss interaction score
B. subtilis 168 [5] | -0.0659
S. aureus DSM 20231 [4] | 0.099
S. aureus Newman | 0.0732
S. pneumoniae D39V [6] | -0.133

CCCCCCCCCC(=O)N[C@@H](Cc1c[nH]c2ccccc12)C(=O)N[C@H](CC(N)=O)C(=O)N[C@@H](CC(=O)O)C(=O)N[C@@H]1C(=O)NCC(=O)N[C@@H](CCCN)C(=O)N[C@@H](CC(=O)O)C(=O)N[C@H](C)C(=O)N[C@@H](CC(=O)O)C(=O)NCC(=O)N[C@H](CO)C(=O)N[C@@H]([C@H](C)CC(=O)O)C(=O)N[C@@H](CC(=O)c2ccccc2N)C(=O)O[C@@H]1C [Daptomycin] + COc1cc(Cc2cnc(N)nc2N)cc(OC)c1OC [Trimethoprim]
fitness
Conditions | first compound 0.125 µg/mL | first compound 0.25 µg/mL | first compound 0.5 µg/mL | first compound 1 µg/mL | first compound 2 µg/mL
B. subtilis 168 [2], partner 0.125 µg/mL | – | 0.692 | 0.659 | – | –
B. subtilis 168 [2], partner 0.25 µg/mL | – | – | 0.552 | – | –
B. subtilis 168 [2], partner 0.5 µg/mL | 0.454 | – | 0.446 | – | –
S. aureus DSM 20231 [1], partner 0.125 µg/mL | – | – | 0.788 | 0.745 | 0.839
S. aureus DSM 20231 [1], partner 0.25 µg/mL | 0.573 | 0.553 | 0.645 | 0.657 | 0.695
S. aureus DSM 20231 [1], partner 0.5 µg/mL | 0.128 | 0.0962 | – | 0.304 | 0.37
S. aureus DSM 20231 [1], partner 1 µg/mL | 0.0396 | 0.0212 | 0.0174 | – | –

fitness, B. subtilis 168 [2], one replicate
Conditions | partner 0.1 µg/mL | partner 0.125 µg/mL | partner 0.2 µg/mL | partner 0.25 µg/mL | partner 0.4 µg/mL | partner 0.5 µg/mL | partner 1 µg/mL | partner 2 µg/mL
first compound 0.125 µg/mL | 0.908 | 0.711 | 0.755 | – | 0.533 | – | 0.328 | 0.251
first compound 0.25 µg/mL | ≥ 1 | – | 0.756 | – | 0.555 | – | 0.226 | 0.161
first compound 0.5 µg/mL | 0.918 | – | 0.657 | – | 0.512 | – | 0.144 | 0.149
first compound 1 µg/mL | – | 0.35 | – | 0.22 | – | 0.115 | – | –

Conditions | Bliss interaction score
B. subtilis 168 [5] | 0.0723
S. aureus DSM 20231 [4] | -0.0443
S. aureus Newman | 0.0713
S. pneumoniae D39V [6] | -0.192

CCN(CC)CCOC(=O)c1ccc(N)cc1 [Procaine] + COc1cc(Cc2cnc(N)nc2N)cc(OC)c1OC [Trimethoprim]
fitness
Conditions | first compound 85.5 µg/mL | first compound 171 µg/mL | first compound 342 µg/mL
B. subtilis 168 [2], partner 0.25 µg/mL | 0.704 | 0.688 | 0.69
B. subtilis 168 [2], partner 0.5 µg/mL | 0.531 | 0.562 | 0.498
S. aureus DSM 20231 [1], partner 0.125 µg/mL | 0.669 | 0.744 | 0.709
S. aureus DSM 20231 [1], partner 0.25 µg/mL | 0.565 | 0.607 | 0.613
S. aureus DSM 20231 [1], partner 0.5 µg/mL | 0.118 | 0.123 | 0.144
S. aureus DSM 20231 [1], partner 1 µg/mL | 0.0274 | 0.0353 | 0.021

fitness, B. subtilis 168 [2], one replicate
Conditions | partner 0.1 µg/mL | partner 0.125 µg/mL | partner 0.2 µg/mL | partner 0.4 µg/mL | partner 1 µg/mL | partner 2 µg/mL
first compound 85.5 µg/mL | 0.877 | 0.771 | 0.722 | 0.555 | 0.393 | 0.277
first compound 171 µg/mL | 0.836 | 0.775 | 0.783 | 0.544 | 0.444 | 0.295
first compound 342 µg/mL | 0.83 | 0.742 | 0.832 | 0.555 | 0.37 | 0.383

Conditions | Bliss interaction score
B. subtilis 168 [5] | 0.0837
S. aureus DSM 20231 [4] | -0.0543
S. aureus Newman | 0.0842
S. pneumoniae D39V [6] | 0.0954
